Measured values as given in ChEMBL document CHEMBL3885881, “DrugMatrix”.

Species on record: Rattus norvegicus
Assay: DrugMatrix - Regimen: Daily Repeat
Type: toxicity, organism-based, Sprague-Dawley
Set-up: regimen Daily Repeat, gender Male, age 6-8 weeks
Conditions: in vivo, po, route oral GAVAGE, vehicle 100 % WATER; for ABSOLUTE BASOPHIL / ABSOLUTE EOSINOPHIL / ABSOLUTE LYMPHOCYTE / ABSOLUTE MONOCYTE / ABSOLUTE SEGMENTED NEUTROPHIL / BASOPHIL / EOSINOPHIL / ERYTHROCYTE COUNT / HEMATOCRIT / HEMOGLOBIN / LEUKOCYTE COUNT / LYMPHOCYTE / MEAN CORPUSCULAR HEMOGLOBIN / MEAN CORPUSCULAR HEMOGLOBIN CONCENTRATION / MEAN CORPUSCULAR VOLUME / MONOCYTE / NEUTROPHIL / NUCLEATED RED BLOOD CELLS / PLATELET COUNT: tissue Blood; for ALANINE AMINOTRANSFERASE / ALBUMIN / ALKALINE PHOSPHATASE / ASPARTATE AMINOTRANSFERASE / BLOOD UREA NITROGEN / CARBON DIOXIDE / CHLORIDE / CHOLESTEROL / CREATINE PHOSPHOKINASE / CREATININE / GLUCOSE / LACTATE DEHYDROGENASE / LIPASE / PHOSPHORUS / POTASSIUM / SODIUM / TOTAL BILIRUBIN / TOTAL PROTEIN / URIC ACID: tissue Plasma
[1] = 120 mg/kg, 120 h, dose level Low, time 5 day
[2] = 1200 mg/kg, 72 h, dose level High, time 3 day
[3] = 1200 mg/kg, 120 h, dose level High, time 5 day

Structure (SMILES): CCN(CC)CCNC(=O)c1cc(S(C)(=O)=O)ccc1OC [TIAPRIDE]
- ABSOLUTE BASOPHIL [1]: 0 CELLS/uL
- ABSOLUTE EOSINOPHIL [1]: 28 CELLS/uL
- ABSOLUTE LYMPHOCYTE [1]: 7405.67 CELLS/uL
- ABSOLUTE MONOCYTE [1]: 0 CELLS/uL
- ABSOLUTE SEGMENTED NEUTROPHIL [1]: 299.67 CELLS/uL
- BASOPHIL [1]: 0%
- EOSINOPHIL [1]: 0.33%
- ERYTHROCYTE COUNT [1]: 5.54 x10E6/uL
- HEMATOCRIT [1]: 34.8%
- HEMOGLOBIN [1]: 13.1 G/DL
- LEUKOCYTE COUNT [1]: 7.73 x10E3/uL
- LYMPHOCYTE [1]: 95.67%
- MEAN CORPUSCULAR HEMOGLOBIN [1]: 23.67 pg
- MEAN CORPUSCULAR HEMOGLOBIN CONCENTRATION [1]: 37.7 G/DL
- MEAN CORPUSCULAR VOLUME [1]: 62.73 fL
- MONOCYTE [1]: 0%
- NEUTROPHIL [1]: 4%
- NUCLEATED RED BLOOD CELLS [1]: 0 /100WBC
- PLATELET COUNT [1]: 1102.33 x10E3/uL
- ALANINE AMINOTRANSFERASE [1]: 42 u/L
- ALBUMIN [1]: 4.3 G/DL
- ALKALINE PHOSPHATASE [1]: 382 u/L
- ASPARTATE AMINOTRANSFERASE [1]: 80.33 u/L
- BLOOD UREA NITROGEN [1]: 15.33 mg/dL
- CARBON DIOXIDE [1]: 27.67 mmol/L
- CHLORIDE [1]: 103 MEQ/L
- CHOLESTEROL [1]: 70.67 mg/dL
- CREATINE PHOSPHOKINASE [1]: 223.33 u/L
- CREATININE [1]: 0.19 mg/dL
- GLUCOSE [1]: 142.33 mg/dL
- LACTATE DEHYDROGENASE [1]: 132.33 u/L
- LIPASE [1]: 8.33 u/L
- PHOSPHORUS [1]: 11.83 mg/dL
- POTASSIUM [1]: 6.07 MEQ/L
- SODIUM [1]: 149.23 MEQ/L
- TOTAL BILIRUBIN [1]: 0.27 mg/dL
- TOTAL PROTEIN [1]: 6.03 G/DL
- URIC ACID [1]: 0.97 mg/dL
- ABSOLUTE BASOPHIL [2]: 0 CELLS/uL
- ABSOLUTE EOSINOPHIL [2]: 187.33 CELLS/uL
- ABSOLUTE LYMPHOCYTE [2]: 11272.67 CELLS/uL
- ABSOLUTE MONOCYTE [2]: 0 CELLS/uL
- ABSOLUTE SEGMENTED NEUTROPHIL [2]: 806.67 CELLS/uL
- BASOPHIL [2]: 0%
- EOSINOPHIL [2]: 1.33%
- ERYTHROCYTE COUNT [2]: 6.23 x10E6/uL
- HEMATOCRIT [2]: 38.93%
- HEMOGLOBIN [2]: 14.8 G/DL
- LEUKOCYTE COUNT [2]: 12.27 x10E3/uL
- LYMPHOCYTE [2]: 92.33%
- MEAN CORPUSCULAR HEMOGLOBIN [2]: 23.73 pg
- MEAN CORPUSCULAR HEMOGLOBIN CONCENTRATION [2]: 38.03 G/DL
- MEAN CORPUSCULAR VOLUME [2]: 62.5 fL
- MONOCYTE [2]: 0%
- NEUTROPHIL [2]: 6.33%
- NUCLEATED RED BLOOD CELLS [2]: 0 /100WBC
- PLATELET COUNT [2]: 1394 x10E3/uL
- ALANINE AMINOTRANSFERASE [2]: 38 u/L
- ALBUMIN [2]: 4.53 G/DL
- ALKALINE PHOSPHATASE [2]: 408 u/L
- ASPARTATE AMINOTRANSFERASE [2]: 80 u/L
- BLOOD UREA NITROGEN [2]: 22.33 mg/dL
- CARBON DIOXIDE [2]: 23.33 mmol/L
- CHLORIDE [2]: 107 MEQ/L
- CHOLESTEROL [2]: 76.33 mg/dL
- CREATINE PHOSPHOKINASE [2]: 431 u/L
- CREATININE [2]: 0.22 mg/dL
- GLUCOSE [2]: 189.67 mg/dL
- LACTATE DEHYDROGENASE [2]: 523.33 u/L
- LIPASE [2]: 8.33 u/L
- PHOSPHORUS [2]: 14.8 mg/dL
- POTASSIUM [2]: 6.75 MEQ/L
- SODIUM [2]: 147.23 MEQ/L
- TOTAL BILIRUBIN [2]: 0.27 mg/dL
- TOTAL PROTEIN [2]: 6.37 G/DL
- URIC ACID [2]: 1.9 mg/dL
- ABSOLUTE BASOPHIL [3]: 0 CELLS/uL
- ABSOLUTE EOSINOPHIL [3]: 212 CELLS/uL
- ABSOLUTE LYMPHOCYTE [3]: 15513 CELLS/uL
- ABSOLUTE MONOCYTE [3]: 0 CELLS/uL
- ABSOLUTE SEGMENTED NEUTROPHIL [3]: 1775 CELLS/uL
- BASOPHIL [3]: 0%
- EOSINOPHIL [3]: 1%
- ERYTHROCYTE COUNT [3]: 5.86 x10E6/uL
- HEMATOCRIT [3]: 36.5%
- HEMOGLOBIN [3]: 13.9 G/DL
- LEUKOCYTE COUNT [3]: 17.5 x10E3/uL
- LYMPHOCYTE [3]: 89.33%
- MEAN CORPUSCULAR HEMOGLOBIN [3]: 23.73 pg
- MEAN CORPUSCULAR HEMOGLOBIN CONCENTRATION [3]: 38.1 G/DL
- MEAN CORPUSCULAR VOLUME [3]: 62.33 fL
- MONOCYTE [3]: 0%
- NEUTROPHIL [3]: 9.67%
- NUCLEATED RED BLOOD CELLS [3]: 0 /100WBC
- PLATELET COUNT [3]: 1226 x10E3/uL
- ALANINE AMINOTRANSFERASE [3]: 48.67 u/L
- ALBUMIN [3]: 4.17 G/DL
- ALKALINE PHOSPHATASE [3]: 452.67 u/L
- ASPARTATE AMINOTRANSFERASE [3]: 83.67 u/L
- BLOOD UREA NITROGEN [3]: 17.33 mg/dL
- CARBON DIOXIDE [3]: 26.33 mmol/L
- CHLORIDE [3]: 102.67 MEQ/L
- CHOLESTEROL [3]: 66 mg/dL
- CREATINE PHOSPHOKINASE [3]: 508.33 u/L
- CREATININE [3]: 0.27 mg/dL
- GLUCOSE [3]: 161.67 mg/dL
- LACTATE DEHYDROGENASE [3]: 191.33 u/L
- LIPASE [3]: 8 u/L
- PHOSPHORUS [3]: 14.53 mg/dL
- POTASSIUM [3]: 6.21 MEQ/L
- SODIUM [3]: 146.03 MEQ/L
- TOTAL BILIRUBIN [3]: 0.27 mg/dL
- TOTAL PROTEIN [3]: 6.03 G/DL
- URIC ACID [3]: 1.73 mg/dL
